Experimental data published in paper PMC7190706, “A Self-Assembling Lipidic Peptide and Selective Partial V2 Receptor Agonist Inhibits Urine Production” (Scientific Reports, 2020).
Values belong to the compound of their own block, whether it stands above or below them.

What was measured:
V2 receptor = molecular target: T1, V2 receptor (Canis lupus familiaris, UniProt O77808); assay: V2 receptor agonism, cAMP accumulation in MDCK cells (cAMP EIA); type: cell-based, dog
T1 construct: MDCK cells expressing the V2 receptor were cultured; endogenous in cells; host or cells: MDCK cells
Description: We thus used the V2 receptor from MDCK cells, V1a receptors from A7r5 cells and OT receptors from rat uterine strips for our receptor activity assays.
MDCK cells expressing the V2 receptor were cultured in Eagle’s Essential Minimum Medium (EMEM) supplemented with foetal bovine serum (FBS, 10% v/v), L-Glutamine (1% v/v) and non-essential amino acids (NEAA 1% v/v). […] The cell culture medium was changed every 2 days. Cells were sub-cultured every 7 days or upon reaching confluence using trypsin/ ethylene diamine tetraacetic acid (EDTA) (0.25%w/v trypsin/ 0.01%w/v EDTA in phosphate buffered saline, 3 mL) solution to dissociate the cells and the cells reseeded at one third of their original density.
The cell culture media was changed daily. On the day of the experiment, the cells were washed with Dulbecco’s phosphate-buffered saline (DPBS) without calcium and magnesium and incubated for 1 hour in cell culture medium with isobutyl methylxanthine (IBMX, 0.5 mM). IBMX is a phosphodiesterase inhibitor that prevents the breakdown of cAMP within the cells; allowing for total quantification of the analyte cAMP. […]
for total quantification of the analyte cAMP. […]
was quantified from the cell lysate (0.1 mL) using a competition based EIA as per the […]
acid (0.1 M, 0.1 mL) and the plates read at 450 nm using an ELx808 microplate reader […]
concentration of cAMP per well was determined from equation 1. […]

MDCK cell line = details: read-out: EC50 functional activity (fluid secretion); cited from earlier work
OT receptor = molecular target: T2, OT receptor (Rattus norvegicus, UniProt P70536); assay: OT induced contractions of isolated uterine strips (organ bath); details: for 1/Rmax of double reciprocal plot (1/R vs 1/[OT]): Rmax = maximum contractile response in cm
T2 construct: OT receptors from rat uterine strips for our receptor activity assays; from tissue; host or cells: uterine strips of female Wistar rats
T2 sequence (P70536 1-388): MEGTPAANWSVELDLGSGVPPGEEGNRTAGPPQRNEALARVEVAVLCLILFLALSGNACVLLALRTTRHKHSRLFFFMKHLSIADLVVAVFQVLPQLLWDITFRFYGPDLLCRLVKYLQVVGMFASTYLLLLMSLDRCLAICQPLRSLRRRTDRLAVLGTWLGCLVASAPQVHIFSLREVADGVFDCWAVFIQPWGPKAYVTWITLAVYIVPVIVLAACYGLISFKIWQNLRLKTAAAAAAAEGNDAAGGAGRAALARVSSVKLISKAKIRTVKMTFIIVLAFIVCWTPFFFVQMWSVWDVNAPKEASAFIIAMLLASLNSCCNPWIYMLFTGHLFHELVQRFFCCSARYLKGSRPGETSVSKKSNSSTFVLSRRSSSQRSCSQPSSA
Text: The uterus was excised and dissected into longitudinal strips (0.5 ×1.3–1.4 cm) from the anti-mesometrial side of the mid-portion of horns which contained implantation sites.
Only one strip from each animal was used. The uterine strip was tied at the bottom end to a fixed metal hook and at the top end to a force displacement transducer (Harvard Instruments, Kent, UK) using a cotton thread. The force displacement transducer was coupled to an amplifier driving a direct writing oscillograph (Universal Oscillograph, Harvard, Kent, UK). A cumulative dose procedure was used and isotonic contractions recorded.
DMF was added as DMF had been used to solubilise METx. […] The mean peak amplitude (MPA) was calculated from Eq. 1.1 MPA=ΣPH/n where PH = peak heights obtained within the 10 minute period immediately after addition of METx, OT or dimethylformamide and n = number of peaks within the same 10 minute period. The frequency of isotonic contractions was also evaluated during the 10 minute period immediately after the addition of METx, OT or dimethylformamide.
The organ bath was not washed out until a maximal response was reached. The MPA was calculated as shown in Equation 1, except that the recordings were done after the addition of each dose of OT and the MPA was calculated over a 5 minute period. To quantify the effect of METx on OT induced contractions, METx (final bath concentration = 0.1, 0.3 or 0.6 µM) was added to the organ bath prior to the addition of OT (Table 2 – Supplementary Information). […] Results were plotted as a percentage of the maximum contraction obtained with KCl against concentration. A double reciprocal plot was used to assess the nature of the receptor antagonism observed.
(1 picture or pasted object on this page, not shown here)

[1] = tested on: spontaneous uterine contractions; assay: Spontaneous contractions of isolated uterine strips (organ bath); set-up: species or system rat; details: METx 41 nM
Description: Female Wistar rats (203–225 g) were killed with CO2 on the day of the experiments. The uterus was excised and dissected into longitudinal strips (0.5 ×1.3–1.4 cm) from the anti-mesometrial side of the mid-portion of horns which contained implantation sites.
The uterine strips were suspended in an organ bath that contained physiological salt solution (PSS, 25 ml: 116 mM NaCl, 4.6 mM KCl, 1.16 mM NaH2PO4.H2O, 1.16 mM MgSO4.7H2O, 21.9 mM NaHCO3, 1.8 mM CaCl2.2H2O, 11.6 mM dextrose, 0.03 mM CaNa2EDTA, pH = […]). The water-jacketed bath was maintained at 36 °C and aerated with a mixture of 95% O2 and 5% CO2. Only one strip from each animal was used. The uterine strip was tied at the bottom end to a fixed metal hook and at the top end to a force displacement transducer (Harvard Instruments, Kent, UK) using a cotton thread. The force displacement transducer was coupled to an amplifier driving a direct writing oscillograph (Universal Oscillograph, Harvard, Kent, UK). A cumulative dose procedure was used and isotonic contractions recorded.
To quantify the effect of METx on spontaneous uterine contractions the myometrial strips from the same uterus as above, but from the opposite horn, were equilibrated for 60 min within the organ bath and then a single dose of DMF applied followed by doses of METx as shown in Table 1 in the Supplementary Information. […]

[2] = Plasma stability in 30% rat plasma, HPLC; type: in vitro ADME; details: 37 °C
Description: The plasma stability of METx was evaluated prior to an in vivo study. Blood was collected from male Sprague Dawley rats (n = 3, 200–250 g) into a vacutainer coated with ethylene diamine tetra-acetic acid (EDTA) and kept on ice (4 °C) until the plasma could be separated by centrifugation (10 min at 2000g and 4 °C, Hermle z323k centrifuge, HERMLE Labortechnik, Germany). The separated rat plasma was stored at −20 °C until required. On the day of the experiment, the plasma was thawed just prior to the experiment and diluted to 30% v/v using NaCl (0.9%). METx (7.2 × 10^−4M, 50 μL) was added to the diluted plasma (30% v/v, 450μL) that had been allowed to warm for 30 minutes at 37 °C either as a solution in dimethylsulfoxide or as a GCPQ nanoparticle formulation dispersed in water. The formulations and free drug were incubated at 37 °C with shaking for a maximum of 4 hours. At regular time intervals aliquots (50μL) were removed and mixed with dimethylformamide (150μL) to dissolve the METx and precipitate the plasma proteins. Samples were then immediately vortexed and centrifuged for 10 minutes at 13,000 rpm (MSE micro centaur centrifuge, MSE, UK). The supernatant (100μL) was collected and 40 μL was analysed using a reverse phase high performance liquid chromatography (HPLC) method. HPLC analyses was performed using an Agilent 1200 HPLC system (Agilent Technologies, UK) equipped with a quaternary pump, degasser, autosampler and a UV detector. Samples were chromatographed over a reverse phase column: Phenomenex Onyx Monolithic C18 column (5μm, 4.6 ×100 mm, Phenomenex, UK) connected in series with a guard column (5μm, 4.6 ×10 mm). The column temperature was kept constant at 35 °C. Separation was performed using an acetonitrile, water mobile phase gradient method (Table 3 – Supplementary Information) at a flow rate of 1.5 mL per minute, with detection at a wavelength of 280 nm.

[3] = Spontaneously voided urine volume and osmolality after intravenous injection in healthy rats; type: in vivo; details: METx (5: 1) nanoparticle formulation, rat
Description: Male Sprague Dawley rats (220–250 g) were housed five per cage in an air conditioned unit maintained at 20–22 °C and 50–60% humidity, with lighting controlled on a twelve-hour cycle. The lights were switched on at 07:00 and off at 19:00. Animals were allowed free access to standard rodent chow and water. Before experimentation, animals were habituated for 7 days within the unit. Prior to testing animals were acclimatised to the procedure room for 1 hour. Animals were also acclimatised to the metabolic cages for 20 minutes per day for 5 days before the day of experiment. Animals were randomly assigned into one of four groups; untreated, and animals receiving an intravenous injection of 10, 20 or 40 mg kg^−1 of METx as a GCPQ, METx (5: 1) nanoparticle formulation (n = 3) in a dose volume of 0.9 mL. The formulations were freshly prepared on the morning of the experiment as described above and the pH of the formulation adjusted to pH = 7 using sodium hydroxide (1 M). After receiving their METx formulations, animals were placed within individual metabolic cages (Techniplast, Italy) with access to water. Spontaneously voided urine was collected for 4 hours. Urine osmolality was determined by freezing point depression using a Type 5r osmometer (Loser, Germany).

V1a receptor = molecular target: T3, V1a receptor (Rattus norvegicus, UniProt P30560); assay: V1a receptor agonism, IP-1 ELISA in A7r5 cells; type: cell-based
T3 construct: V1a receptors from A7r5 cells; endogenous in cells; host or cells: A7r5 rat smooth muscle cells
Text: microplate reader. […] The
hours. […] The cells were
manufacturer’s instructions.

human V1a receptor = tested on: human V1a receptor; set-up: method as in PMID 22375852; details: cited from earlier work

T1 sequence (O77808 whole entry): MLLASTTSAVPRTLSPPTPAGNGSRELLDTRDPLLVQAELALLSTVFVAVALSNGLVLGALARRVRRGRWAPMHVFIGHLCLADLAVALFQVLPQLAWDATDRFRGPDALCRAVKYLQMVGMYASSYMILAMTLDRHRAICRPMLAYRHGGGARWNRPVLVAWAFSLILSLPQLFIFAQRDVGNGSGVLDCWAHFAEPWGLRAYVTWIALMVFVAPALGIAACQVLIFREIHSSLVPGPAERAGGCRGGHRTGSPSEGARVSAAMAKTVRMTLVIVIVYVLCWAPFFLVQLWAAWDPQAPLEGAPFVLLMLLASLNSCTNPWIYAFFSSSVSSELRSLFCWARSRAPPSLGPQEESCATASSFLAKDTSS
T3 sequence (P30560 whole entry): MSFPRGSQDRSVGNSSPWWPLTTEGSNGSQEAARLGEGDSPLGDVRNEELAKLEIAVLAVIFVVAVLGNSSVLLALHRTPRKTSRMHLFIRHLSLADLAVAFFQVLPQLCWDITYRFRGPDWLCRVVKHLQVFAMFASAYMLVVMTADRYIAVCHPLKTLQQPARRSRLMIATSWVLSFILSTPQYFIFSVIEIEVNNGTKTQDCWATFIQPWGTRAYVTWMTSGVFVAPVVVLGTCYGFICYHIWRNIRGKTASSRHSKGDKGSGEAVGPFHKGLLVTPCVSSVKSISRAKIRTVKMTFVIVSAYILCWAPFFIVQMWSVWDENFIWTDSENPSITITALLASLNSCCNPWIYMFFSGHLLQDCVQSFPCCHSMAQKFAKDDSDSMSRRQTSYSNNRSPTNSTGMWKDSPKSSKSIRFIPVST

Compound: N=C(N)NCCC[C@H](NC(=O)[C@@H]1CCCN1C(=O)[C@@H]1CSSC[C@H](N)C(=O)N[C@@H](Cc2ccc(O)cc2)C(=O)N[C@@H](Cc2ccccc2)C(=O)N[C@@H](CCC(N)=O)C(=O)N[C@@H](CC(N)=O)C(=O)N1)C(=O)NCC(N)=O [AVP, arginine vasopressin, reference compound]
- concentration at which the maximal cAMP response was seen (V2 receptor): 100 nM
- EC50 (MDCK cell line): 0.36 nM

- concentration at which the maximal cAMP response was seen (V2 receptor): 10 nM
- OT antagonist concentration relative to EC50 at the V2 receptor (OT receptor; 300 nM versus V2 EC50): 100 fold
- shift of the OT dose response curve to the right (OT receptor; METx 300 nM and 600 nM, amplitude of OT induced contractions, p < 0.05): two orders of magnitude
- nature of antagonism at the OT receptor (OT receptor; from double reciprocal plots): non-competitive antagonist
- 1/Rmax of double reciprocal plot (1/R vs 1/[OT]) (OT receptor; inhibitor 100 nM): 0.48
- 1/Rmax of double reciprocal plot (1/R vs 1/[OT]) (OT receptor; inhibitor 300 nM): 0.97
- 1/Rmax of double reciprocal plot (1/R vs 1/[OT]) (OT receptor; inhibitor 600 nM): 1.33
- concentration at which antagonism at the OT receptor starts (OT receptor; uterine strips): 300 nM
- degradation over the 4 hour incubation ([2]; 30% rat plasma, 4 hour): completely degraded
- time to complete degradation ([2]; 30% v/v rat plasma): ≤ 60 min
Compound: CCCCCCCCCCCCCCCC(=O)NCCCC[C@H](NC(=O)CNC(=O)[C@H](CC(C)C)NC(=O)[C@@H]1CCCN1C(=O)[C@@H]1CSSC[C@H](N)C(=O)N[C@@H](Cc2ccc(O)cc2)C(=O)N[C@@H]([C@@H](C)CC)C(=O)N[C@@H](CCC(N)=O)C(=O)N[C@@H](CC(N)=O)C(=O)N1)C(=O)O [METx]
- effect on OT induced contractions (OT receptor; 100 nm of inhibitor): not effective in reducing OT induced contractions
- effect on spontaneous uterine contractions [1]: no effect
- order of stability ([2]; 30% rat plasma): METx, Polymer (1: 5)> METx, Polymer (1: 7)> METx> METx, Polymer (1: 4)
- osmolality of the urine ([3]; 20 mg kg^−1 intravenous as GCPQ): increased significantly
- urine production ([3]; 40 mg kg^−1 intravenous as GCPQ, 4 hour observation period): no urine at all
- spontaneously voided urine volume, dose dependence ([3]; 10, 20 or 40 mg kg^−1 intravenous as GCPQ, 4 hours): dose correlated reduction in urine production

Compound: CC[C@H](C)[C@@H]1NC(=O)[C@H](Cc2ccc(O)cc2)NC(=O)[C@@H](N)CSSC[C@@H](C(=O)N2CCC[C@H]2C(=O)N[C@@H](CC(C)C)C(=O)NCC(N)=O)NC(=O)[C@H](CC(N)=O)NC(=O)[C@H](CCC(N)=O)NC1=O [OT, oxytocin, reference compound]
- EC50 (OT receptor): 0.081 nM

Compound: desmopressin
- agonism at the V1a receptor (V1a receptor): not an agonist at the V1a receptor
- EC50 (MDCK cell line): 0.7 nM
- affinity for the human V1a receptor (human V1a receptor): does not show any affinity
